Experimental data reported in patent publication US20140017223A1, “Pharmaceutical Compositions Comprising A Pancreatic Enzyme Preparation With Viral Infectivity Reduced Below A Significant Level And Methods Of Preparing And Using The Same” (Aptalis Pharma Canada Inc., priority 2010, published 2014).
Values joined by “and” are separate entries in the source; they are usually repeats but may differ in a detail not shown here. Equal entries are not always repeated.

Tests used:
EMCV = assay: Inactivation of spiked EMCV in pancrelipase by BPL, TCID50 titration on VERO cells (Example 2); assay type: cell-based, porcine encephalomyocarditis virus (EMCV); settings: 48 h, 20° C.; for Detected EMCV titer: 0*=below detection limit of 10^3 TCID50/g
Protocol: Four different lots of pancrelipase powders were dissolved in 100 mM Tris, pH=8.3, at a concentration of 100 mg/ml. EMCV virus stock (prepared by Meng X J, Paul P S, Vaughn E M, Zimmerman J J. Development of a radiolabeled nucleic acid probe for the detection of encephalomyocarditis virus of swine. J Vet Diagn Invest. 1993 5:254-8) was mixed with the pancrelipase using slow shaking at room temperature for one day such that the final concentration of pancrelipase was 100 mg/ml. Aliquots were taken from the EMCV-spiked pancrelipase stocks and each was incubated with different concentrations of BPL (available from Sigma-Aldrich, St. Louis, Mo.) (except the control) for 48 hours at room temperature (20° C.). The level of inactivation was measured by the titration of EMCV infectivity on VERO cells using serial dilutions and determining the TCID50 as described in Hierholzer, J. C., Killington, R. A., 1996. Virus isolation and quantitation. In: Mahy, B. W. J., Kangro, H. O. (Eds.), Virology methods manual. Academic Press, London, pp. 25-46.

PPV [1] = assay: Inactivation of PPV by 0.8% (v/v) BPL at 4° C. (Example 6); assay type: cell-based, porcine parvovirus (PPV); settings: 0.8% BPL (4 h) at 4° C.
Protocol: Samples prepared as in Example 1 were treated for four hours with 0.8% (v/v) BPL at 4° C.

PPV [2] = assay: Inactivation of PPV by BPL (30 min, 25° C.), BPL then inactivated with sodium thiosulfate (Example 9); assay type: cell-based, porcine parvovirus (PPV); settings: thiosulfate quench
Protocol: 4.5 g pancrelipase (PEP) powder was dissolved in 44 ml ice cold 100 mM Tris (pH=8.3) by frequently mixing a 50-ml plastic tube that was kept on ice most of the time except when shaking. The dissolved sample was spiked with 1 ml (2×0.5 ml) PPV stock (prepared at the Institut National de la Recherche Scientifique, Québec, Canada using standard protocols (Arella et al., Physicichemical properties, production, and purification of parvoviruses. 1990, In Tijssen, P. (ed.), CRC handbook of parvoviruses. Boca Raton, Fla.: CRC Press, 11-30)) 10^7 FFID50/ml; see Example 8 and Table 8) and was mixed for another 10 minutes.
Three aliquots of the dissolved pancrelipase were transferred into tubes (A-C) and kept on ice while (A) no BPL—the control), (B) (0.4 vol % BPL), or (C) (0.8 vol % BPL) was added to them. After a brief mixing by a vortex machine, the tubes were incubated for 30 minutes at 25° C. At the end of the incubation, the tubes were transferred on to ice and immediately four aliquots were transferred from each experimental condition into new tubes (a-d). These tubes were placed into the mixture of acetone/dry ice for fast freezing. Later, the samples were stored at −80° C.
From the remaining solutions, aliquots from each experiment (using triplicates) were diluted 100 times in cell culture medium containing sodium thiosulfate and supplemented with traces of chloroform. Samples were briefly mixed and kept at 4° C. for at least 6 hours before further dilution for the FFID50 infectivity determination. See Example 9.
The experiment above was repeated two more times (altogether: experiments 1-3).
Table 9 presents the result of the inactivation of PPV by BPL for 30 min at 25° C. and subsequent inactivation of the BPL by incubating the BPL-containing PEP solutions with sodium thiosulfate for at least 6 hours at 4° C. As discussed above, three independent experiments with BPL inactivation after PPV spiking were followed by inactivation of BPL by sodium thiosulfate (3 parallels for each experiment).

lipase = assay: Lipase activity of pancrelipase after BPL treatment, freezing and lyophilization (USP 31 method); assay type: biochemical; settings: for Loss of Lipase Activity: pancrelipase, freezing, lyophilization, precision 5-10%
Protocol: (§1) Enzymatic activity for the enzymes of a PEP (e.g., proteases, lipases, and amylases) can be determined, for example, by using the United States Pharmacopeia (USP) monographed methods (The United States Pharmacopeia and the National Formulary (USP 31/NF 26). 2008. Rockville (MD): United States Pharmacopeial Convention, Inc.).
(§2) The samples c-d from all the experiments were tested for lipase, protease, and amylase enzymatic activity using USP 31 monographed methods. See Example 11 and Table 11.
(§3) Table 11 presents the lipase, protease, and amylase activity for aliquots of the pancrelipase after BPL treatment for 30 min at 25° C. followed by freezing and lyophilization (same treatment as for samples in Example 10).

protease = assay: Protease activity of pancrelipase after BPL treatment, freezing and lyophilization (USP 31 method); assay type: biochemical; settings: for Loss of Protease Activity: pancrelipase, freezing, lyophilization, precision 5-10%
Protocol: as §1, §2, §3

[3] = lyophilized samples treated with 0.4% BPL and 0.8% BPL

O=C1CCO1 [BPL, Beta-propiolactone]
EMCV Titer reduction (EMCV; PEP #1, 0.1% (v/v) BPL): 1.33 × 10^2 TCID50/g | Detected EMCV titer (EMCV; PEP #1, 0.1% (v/v) BPL): 4.22 × 10^5 TCID50/g | EMCV Titer reduction (EMCV; PEP #1, 0.2% (v/v) BPL): >10^5 TCID50/g | Detected EMCV titer (EMCV; PEP #1, 0.2% (v/v) BPL): < 0* TCID50/g | EMCV Titer reduction (EMCV; PEP #1, 0.4% (v/v) BPL): >10^5 TCID50/g | Detected EMCV titer (EMCV; PEP #1, 0.4% (v/v) BPL): < 0* TCID50/g | EMCV Titer reduction (EMCV; PEP #1, 0.8% (v/v) BPL): >10^5 TCID50/g | Detected EMCV titer (EMCV; PEP #1, 0.8% (v/v) BPL): < 0* TCID50/g | EMCV Titer reduction (EMCV; PEP #2, 0.1% (v/v) BPL): 1.78 × 10^2 TCID50/g | Detected EMCV titer (EMCV; PEP #2, 0.1% (v/v) BPL): 3.16 × 10^5 TCID50/g | EMCV Titer reduction (EMCV; PEP #2, 0.2% (v/v) BPL): >10^5 TCID50/g | Detected EMCV titer (EMCV; PEP #2, 0.2% (v/v) BPL): < 0* TCID50/g | EMCV Titer reduction (EMCV; PEP #2, 0.4% (v/v) BPL): >10^5 TCID50/g | Detected EMCV titer (EMCV; PEP #2, 0.4% (v/v) BPL): < 0* TCID50/g | EMCV Titer reduction (EMCV; PEP #2, 0.8% (v/v) BPL): >10^5 TCID50/g | Detected EMCV titer (EMCV; PEP #2, 0.8% (v/v) BPL): < 0* TCID50/g | EMCV Titer reduction (EMCV; PEP #3, 0.1% (v/v) BPL): >10^5 TCID50/g | Detected EMCV titer (EMCV; PEP #3, 0.1% (v/v) BPL): < 0* TCID50/g | EMCV Titer reduction (EMCV; PEP #3, 0.2% (v/v) BPL): >10^5 TCID50/g | Detected EMCV titer (EMCV; PEP #3, 0.2% (v/v) BPL): < 0* TCID50/g | EMCV Titer reduction (EMCV; PEP #3, 0.4% (v/v) BPL): >10^5 TCID50/g | Detected EMCV titer (EMCV; PEP #3, 0.4% (v/v) BPL): < 0* TCID50/g | EMCV Titer reduction (EMCV; PEP #3, 0.8% (v/v) BPL): >10^5 TCID50/g | Detected EMCV titer (EMCV; PEP #3, 0.8% (v/v) BPL): < 0* TCID50/g | EMCV Titer reduction (EMCV; PEP #4, 0.1% (v/v) BPL): 1.33 × 10^3 TCID50/g | Detected EMCV titer (EMCV; PEP #4, 0.1% (v/v) BPL): 7.50 × 10^4 TCID50/g | EMCV Titer reduction (EMCV; PEP #4, 0.2% (v/v) BPL): >10^5 TCID50/g | Detected EMCV titer (EMCV; PEP #4, 0.2% (v/v) BPL): < 0* TCID50/g | EMCV Titer reduction (EMCV; PEP #4, 0.4% (v/v) BPL): >10^5 TCID50/g | Detected EMCV titer (EMCV; PEP #4, 0.4% (v/v) BPL): < 0* TCID50/g | EMCV Titer reduction (EMCV; PEP #4, 0.8% (v/v) BPL): >10^5 TCID50/g | Detected EMCV titer (EMCV; PEP #4, 0.8% (v/v) BPL): < 0* TCID50/g | Log Reduction (PPV [1]; media Mixture water + IPA): 4.9 Log | Sample infectivity after treatment with BPL (PPV [1]; media Mixture water + IPA): 5.2 FFID50/g log | Log Reduction (PPV [1]; media Water): 5.2 Log | Sample infectivity after treatment with BPL (PPV [1]; media Water): 5.0 FFID50/g log | Mean Infectivity ± SD (PPV [2]; 0.4% BPL, 30 min 25° C.): 2.63 ± 6.86 × 10^4 FFID50/g | PPV Titer reduction (PPV [2]; 0.4% BPL, 30 min 25° C.): 0.65 × 10^2 FFID50/g | Average Results per Sample (PPV [2]; 0.4% BPL, 30 min 25° C., experiments B1-B3): 2.32 × 10^4 FFID50/g and 2.15 × 10^4 FFID50/g and 3.42 × 10^4 FFID50/g | Results (PPV infectivity, single determinations) (PPV [2]; 0.4% BPL, 30 min 25° C., experiments B1-B3, 3 parallels each): 2.50 × 10^4 FFID50/g and 1.98 × 10^4 FFID50/g and 3.14 × 10^4 FFID50/g and 3.96 × 10^4 FFID50/g | Reduction of virus infectivity (PPV [2]; 0.4 vol % BPL, room temperature, 30 minutes): more than 60 times | Mean Infectivity ± SD (PPV [2]; 0.8% BPL, 30 min 25° C.): 5.25 ± 5.25 × 10^3 FFID50/g | PPV Titer reduction (PPV [2]; 0.8% BPL, 30 min 25° C.): 0.31 × 10^4 FFID50/g | Inactivation of PPV (PPV [2]; 0.8% BPL, room temperature, 30 minutes): three magnitudes of order | Lipase activity maintained (lipase; [3]): maintained the majority | Loss of Lipase Activity (lipase; 0.4% BPL 30 min 25° C.): 19.79% | Loss of Lipase Activity (lipase; 0.8% BPL 30 min 25° C.): 26.40% | Protease activity maintained (protease; [3]): maintained the majority | Loss of Protease Activity (protease; 0.4% BPL 30 min 25° C.): 0% | Loss of Protease Activity (protease; 0.8% BPL 30 min 25° C.): 0%
